Key:
Format in all cases: in vivo
[1] = test system: Diamond back moth (Plutella xylostella); assay: Diamond back moth leaf-dip test on cabbage leaves; details: 3rd instar larvae, 72 hours after treatment, in comparison with untreated controls
Description: The active compound was dissolved at the desired concentration in a mixture of 1:1 (vol:vol) distilled water: acetone. Surfactant (Kinetic HV) was added at a rate of 0.01% (vol/vol). The test solution was prepared on the day of use.
Leaves of cabbage were dipped in test solution and air-dried. Treated leaves were placed in petri dishes lined with moist filter paper and inoculated with ten 3rd instar larvae. Mortality was recorded 72 hours after treatment. Feeding damages were also recorded using a scale of 0-100%.

[2] = test system: Green Peach Aphid (Myzus persicae); assay: Green peach aphid systemic test, artificial diet in microtiter plates; details: 72 h, adult aphids, 3 days, in comparison with untreated controls
Text: For evaluating control of green peach aphid (Myzus persicae) through systemic means the test unit consisted of 96-well-microtiter plates containing liquid artificial diet under an artificial mem brane.
The compounds were formulated using a solution containing 75% v/v water and 25% v/v DMSO. Different concentrations of formulated compounds were pipetted into the aphid diet, using a custom built pipetter, at two replications.
After application, 5-8 adult aphids were placed on the artificial membrane inside the microtiter plate wells. The aphids were then allowed to suck on the treated aphid diet and incubated at about 23 ± 1°C and about 50 ± 5 % relative humidity for 3 days. Aphid mortality and fecundity was then visually assessed.

[3] = test system: Boll weevil (Anthonomus grandis); assay: Boll weevil insect diet test in microtiter plates; details: 120 h, egg and larval mortality, 5 days, in comparison with untreated controls
Description: For evaluating control of boll weevil (Anthonomus grandis) the test unit consisted of 96-well-microtiter plates containing an insect diet and 5-10 A. grandis eggs.
The compounds were formulated using a solution containing 75% v/v water and 25% v/v DMSO. Different concentrations of formulated compounds were sprayed onto the insect diet at 5µl, using a custom-built micro atomizer, at two replications.
After application, microtiter plates were incubated at about 25 ± 1°C and about 75 ± 5 % relative humidity for 5 days. Egg and larval mortality was then visually assessed.

[4] = test system: Southern armyworm (Spodoptera eridania), 2nd instar larvae; assay: Southern armyworm foliar spray test on lima bean plants; details: 96 h, 4 days after treatment, in comparison with untreated controls
Description: The active compounds were formulated by a Tecan liquid handler in 100% cyclohexanone as a 10,000 ppm solution supplied in tubes. The 10,000 ppm solution was serially diluted in 100% cyclohexanone to make interim solutions. These served as stock solutions for which final dilutions were made by the Tecan in 50% acetone:50% water (v/v) into 10 or 20ml glass vials. A nonionic surfactant (Kinetic®) was included in the solution at a volume of 0.01% (v/v). The vials were then inserted into an automated electrostatic sprayer equipped with an atomizing nozzle for application to plants/insects. Lima bean plants (variety Sieva) were grown 2 plants to a pot and selected for treatment at the 1st true leaf stage. Test solutions were sprayed onto the foliage by an auto-mated electrostatic plant sprayer equipped with an atomizing spray nozzle. The plants were dried in the sprayer fume hood and then removed from the sprayer. Each pot was placed into perforated plastic bags with a zip closure. Ten to 11 armyworm larvae were placed into the bag and the bags zipped closed. Test plants were maintained in a growth room at about 25°C and about 20-40% relative humidity for 4 days, avoiding direct exposure to fluorescent light (14:10 light:dark photoperiod) to prevent trapping of heat inside the bags. Mortality and reduced feeding were assessed 4 days after treatment, compared to untreated control plants.

[5] = test system: Orchid thrips (Dichromothrips corbetti); assay: Orchid thrips floral-immersion test; details: adult thrips, 72 hours after treatment, in comparison with untreated controls
Description: Dichromothrips corbetti adults used for bioassay were obtained from a colony maintained continuously under laboratory conditions. For testing purposes, the test compound is diluted in a 1:1 mixture of acetone:water (vol:vol), plus Kinetic HV at a rate of 0.01% v/v.
Thrips potency of each compound was evaluated by using a floral-immersion technique. All petals of individual, intact orchid flowers were dipped into treatment solution and allowed to dry in Petri dishes. Treated petals were placed into individual re-sealable plastic along with about 20 adult thrips. All test arenas were held under continuous light and a temperature of about 28°C for duration of the assay. After 3 days, the numbers of live thrips were counted on each petal. The percent mortality was recorded 72 hours after treatment.

[6] = test system: Tobacco budworm (Heliothis virescens); assay: Tobacco budworm insect diet test in microtiter plates; details: 120 h, egg and larval mortality, 5 days, in comparison with untreated controls
Description: For evaluating control of tobacco budworm (Heliothis virescens) the test unit consisted of 96-well-microtiter plates containing an insect diet and 15-25 H. virescens eggs.
The compounds were formulated using a solution containing 75% v/v water and 25% v/v DMSO. Different concentrations of formulated compounds were sprayed onto the insect diet at 10 µl using a custom-built micro atomizer, at two replications.
After application, microtiter plates were incubated at about 28 ± 1°C and about 80 ± 5 % relative humidity for 5 days. Egg and larval mortality was then visually assessed.

Cc1nc(-c2nccnc2C(C)N(CC2CC2)C(=O)c2cc(C(F)(F)F)cc(C(F)(F)F)c2)no1 (stereo not drawn) [I-3, N-(cyclopropylmethyl)-N-[1-[3-(5-methyl-1,2,4-oxadiazol-3-yl)pyrazin-2-yl]ethyl]-3,5-bis(trifluoromethyl)benzamide]
≥ 75%: mortality at 300 ppm [1] | mortality at 2500 ppm [2] | mortality at 2500 ppm [3] | mortality at 300 ppm [4] | mortality at 300 ppm [5]

CNC(=O)c1nc(-c2nccnc2C(C)N(CC2CC2)C(=O)c2cc(C(F)(F)F)cc(C(F)(F)F)c2)no1 (stereo not drawn) [I-4, 3-[3-[1-[[3,5-bis(trifluoromethyl)benzoyl]-(cyclopropylmethyl)amino]ethyl]pyrazin-2-yl]-N-methyl-1,2,4-oxadiazole-5-carboxamide]
≥ 75%: mortality at 2500 ppm [6] | mortality at 2500 ppm [3]

CCN(C)C(=O)c1nc(-c2nccnc2C(C)NC(=O)c2cc(C(F)(F)F)cc(C(F)(F)F)c2)no1 (stereo not drawn) [I-2, 3-[3-[1-[[3,5-bis(trifluoromethyl)benzoyl]amino]ethyl]pyrazin-2-yl]-N-ethyl-N-methyl-1,2,4-oxadiazole-5-carboxamide]
≥ 75%: mortality at 300 ppm [1] | mortality at 2500 ppm [6] | mortality at 2500 ppm [3]

Cc1nc(-c2nccnc2C(C)NC(=O)c2cc(C(F)(F)F)cc(C(F)(F)F)c2)no1 (stereo not drawn) [I-1, N-[1-[3-(5-methyl-1,2,4-oxadiazol-3-yl)pyrazin-2-yl]ethyl]-3,5-bis(trifluoromethyl)benzamide]
≥ 75%: mortality at 300 ppm [1] | mortality at 2500 ppm [2] | mortality at 2500 ppm [6] | mortality at 2500 ppm [3] | mortality at 300 ppm [4]
